Experimental data taken from patent US4252806A, “Triazoloquinolones” (Mead Johnson & Company, priority 1979, dated 1981).

Assays:
[1] = Rotorod method for motor incordination in mice; type: in vivo; settings: oral
Text: Rotorod method for motor
^4 Kinnaird, et al., J. Pharmacol. & Exptl.
Cutting, et al., Archives Int. Pharmacodyn.

[2] = CNS depression in mice: antagonism of foot shock induced aggression; type: in vivo; settings: Mus musculus, oral
Text: Antagonism of foot shock
^5 Tedeschi, et al., J. Pharmacol. & Exptl. Ther. 125, 28 (1959).

[3] = Inhibition of pernicious preening in mice (antipsychotic or analgetic); type: in vivo; settings: Mus musculus, oral, read-out: ED50, inhibition of pernicious preening (anti psychotic or analgetic)
Text: Inhibition of pernicious
psychotic or analgetic)^6
^6 Wilfon, et al., Federation Proceedings 19, 21 (1960).

[4] = Suppression of conditioned avoidance response; type: in vivo; settings: oral; for suppression of conditioned avoidance response, activity in words: at 100 mg/kg
Text: |Suppression of conditioned |avoidance response | ^7 Albert, et al., Pharmacologist 4, 152 (1962).

[5] = Reduction of spontaneous motor activity in mice; type: in vivo; settings: oral
[6] = Mouse, tail clip (analgetic); type: in vivo; settings: oral
Text: ^1 Bianchi, et al., Brit. J. of Pharmacology 9, 280 (1954).

[7] = Prevention of reserpine ptosis in mice (oral pretreatment); type: in vivo; settings: Mus musculus, test drug oral (per os) before reserpine 2.0 mg./kg. intravenously
[8] = Reduction of phenylquinone writhing in mice (analgetic); type: in vivo; settings: Mus musculus, oral
Text: Reduction of phenylquinone
^2 Hendershot, et al., J. Pharmcol. & Exptl. Ther. 125, 237 (1959).

[9] = Lethal toxicity (ALD50) and first signs of pharmacologic activity (ATD50) in mice; settings: mouse, in vivo, oral, groups of 10, given as part of ALD50/ATD50 ratio; for TD50: read-out: ATD50 (dose at which signs of pharmacologic activity are first evidenced)
Procedure: In groups of 10 mice treated variously with geometrically increasing doses of test compound of from 125 mg./kg. to 2,000 mg./kg., the lethal toxicity (ALD50) and the dose at which signs of pharmacologic activity are first evidenced (ATD50) can be estimated. […] The ALD50 /ATD50 ratio (mg. per kg. body wt./mg. per kg. body wt.) for the compound of Procedure 4 is 2,000/125-250 and for that of Procedure 6 is >2,000/8-15.7. The ratio for trazodone is 940/2-4. Thus, the present substances have less than one-half the lethal toxicity of trazodone and from less than one-half to one-fiftieth the propensity for producing overt signs of physiological effect (ATD50) on oral administration to mice. More particularly, the present substances exert less of a depressant effect on the central nervous system as reflected by less deficit in motor coordination, less interference with normal motor activity, and less analgetic effect than trazodone. Laboratory test data with respect to these properties are arranged below.

[10] = various animal tests, U.S. Pat. No. 3,381,009; cited from earlier work
[11] = clinical use, vs imipramine; cited from earlier work

SMILES	Rotorod method for motor incordination, activity in words ([1]; at 800 (mg./kg.))	ED50 [2]	ED50 [3]	suppression of conditioned avoidance response, activity in words [4]	AED-0.3, reduction of spontaneous motor activity [5]	ED50 [6]	ED50 [7]	ED50 [8]	LD50 [9]	TD50 [9]	reduction of spontaneous motor activity, activity in words ([5]; at 20, 40, & 80 (mg./kg.))	tail clip (analgetic), activity in words ([6]; at 200 (mg./kg.))	pharmacological actions [10]	TD50 ([1]; mouse, in vivo, read-out: ED50, Rotorod method for motor incordination)	clinical antidepressant effectiveness and side effects [11]	ED50 [4]
O=c1n(CCCN2CCN(c3cccc(Cl)c3)CC2)nc2ccc3ccccc3n12 [Procedure 4, 2-[3-[4-(3-Chlorophenyl)-1-piperazinyl]propyl]-1,2,4-triazolo[4,3-a]quinolin-3(2H)-one]	inactive	54 mg/kg	24 mg/kg	inactive	80 mg/kg	200 mg/kg	29 mg/kg	40.5 mg/kg	2000 mg/kg	125 to 250 mg/kg	–	–	–	–	–	–
Cc1cc2nn(CCCN3CCN(c4cccc(Cl)c4)CC3)c(=O)n2c2ccccc12 [Procedure 6]	–	36.5 mg/kg	62 mg/kg	inactive	–	–	27 mg/kg	51.8 mg/kg	> 2000 mg/kg	8 to 15.7 mg/kg	inactive	inactive	–	–	–	–
O=c1n(CCCN2CCN(c3cccc(Cl)c3)CC2)nc2ccccn12 [trazodone, 2-[3-[4-(3-chlorophenyl)-1-piperazinyl]propyl]-1,2,4-triazolo[4,3-a]pyridin-3(2H)-one, reference compound]	–	22.2 mg/kg	43 mg/kg	–	15.3 mg/kg	55.5 mg/kg	36 mg/kg	21.8 mg/kg	940 mg/kg	2 to 4 mg/kg	–	–	tranquilizing action, hypotensive action, and analgesic action	44.4 mg/kg	antidepressant equivalent in effectiveness to imipramine but with fewer side effects	131 mg/kg
